Test results from PubChem BioAssay (NCI).
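Five compound concentrations were applied to cells in 96-well plates for 48 hours; endpoints were derived by simple linear interpolation of the resulting dose-response curve. TGI: concentration producing complete growth inhibition.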

What was measured:
Test in all cases: NCI-60 cell line screen, 48 h
HCC-2998 colon = tested on: HCC-2998 colon
TK-10 renal = tested on: TK-10 renal
SF-539 CNS = tested on: SF-539 CNS
U251 CNS = tested on: U251 CNS
SK-MEL-28 melanoma = tested on: SK-MEL-28 melanoma
OVCAR-5 ovarian = tested on: OVCAR-5 ovarian
HCT-116 colon = tested on: HCT-116 colon
SK-MEL-2 melanoma = tested on: SK-MEL-2 melanoma
HL-60(TB) leukemia = tested on: HL-60(TB) leukemia
NCI/ADR-RES ovarian = tested on: NCI/ADR-RES ovarian
HOP-62 NSCLC = tested on: HOP-62 NSCLC
NCI-H522 lung = tested on: NCI-H522 lung
MDA-MB-231 breast = tested on: MDA-MB-231 breast
COLO 205 colon = tested on: COLO 205 colon
HOP-92 NSCLC = tested on: HOP-92 NSCLC
KM12 colon = tested on: KM12 colon
MCF7 breast = tested on: MCF7 breast

Compound | TGI (HCC-2998 colon) [µM] | TGI (TK-10 renal) [µM] | TGI (SF-539 CNS) [µM] | TGI (U251 CNS) [µM] | TGI (SK-MEL-28 melanoma) [µM] | TGI (OVCAR-5 ovarian) [µM] | TGI (HCT-116 colon) [µM] | TGI (SK-MEL-2 melanoma) [µM] | TGI (HL-60(TB) leukemia) [µM] | TGI (NCI/ADR-RES ovarian) [µM] | TGI (HOP-62 NSCLC) [µM] | TGI (NCI-H522 lung) [µM] | TGI (MDA-MB-231 breast) [µM] | TGI (COLO 205 colon) [µM] | TGI (HOP-92 NSCLC) [µM] | TGI (KM12 colon) [µM] | TGI (MCF7 breast) [µM]
COC(=O)c1cc(C)ccc1C1CN=NC12Cc1ccc(C)cc1C2=O (stereo not drawn) | > 100 | > 100 | > 100 | > 100 | > 100 | > 100 | > 100 | > 100 | 37.5 | > 100 | > 100 | 98.9 | > 100 | 29.3 | 66.5 | > 100 | 85.8
O=C(O)c1ccccc1/C=N/NC1=NCCN1 | > 100 | > 100 | > 100 | > 100 | > 100 | > 100 | > 100 | > 100 | > 100 | > 100 | > 100 | > 100 | > 100 | > 100 | 91.9 | > 100 | > 100
Cc1c(C)c(C)n(C2OC(CO)C(O)C(O)C2O)c(=S)c1C#N (stereo not drawn) | > 100 | > 100 | > 100 | > 100 | > 100 | > 100 | > 100 | > 100 | > 100 | > 100 | > 100 | > 100 | > 100 | > 100 | > 100 | > 100 | > 100
O=c1[nH]nc(-c2ccccc2)n1/N=C/c1ccc([N+](=O)[O-])cc1 | > 83.5 | 55 | > 100 | 20.8 | > 100 | > 100 | > 100 | 67.3 | > 100 | > 68.9 | 25.8 | > 100 | > 63.8 | > 100 | 32 | > 100 | > 100
CCOC(=O)CCCNC(=O)CCCCC(=O)N(C)C | > 100 | > 100 | > 100 | > 100 | > 100 | > 100 | > 100 | > 100 | > 100 | > 100 | > 100 | > 100 | > 100 | > 100 | > 100 | > 100 | > 100
CC(C)(C)OC(=O)CN1C(=O)CC1CC(=O)c1ccccc1 (stereo not drawn) | 63.2 | 93.2 | 34.9 | 29.4 | 36.7 | 36.8 | 49.7 | 32.2 | 47.9 | > 100 | 34.2 | 33.7 | 31.1 | 49.6 | > 100 | 44.4 | 36.1
COc1ccccc1N(CN1C(=O)CCC1C(=O)O)C(C)=O (stereo not drawn) | > 100 | > 100 | > 100 | > 100 | > 100 | > 100 | > 100 | > 100 | > 100 | > 100 | > 100 | > 100 | > 100 | > 100 | > 100 | > 100 | > 100
O=[N+]([O-])c1ccc2c(c1)S(=O)(=O)N1Cc3ccccc3CCN21 | > 100 | > 100 | > 100 | > 100 | > 100 | > 100 | > 100 | > 100 | > 100 | > 100 | > 100 | > 100 | > 100 | > 100 | > 100 | > 100 | > 100
CC(=O)N(C(C)=O)n1c(Cc2ccc(Cl)cc2)n[nH]c1=O | > 100 | > 100 | > 100 | > 100 | > 100 | > 100 | > 100 | > 100 | > 100 | > 100 | 98.8 | > 100 | > 100 | > 100 | > 100 | > 100 | > 100
CCCCCCCCCCCCN(CC(O)C(O)C(OC1OC(CO)C(O)C(O)C1O)C(O)CO)C(=O)CCCCCCCCCCC (stereo not drawn) | 32.6 | 29.9 | > 100 | 32.6 | 31.9 | > 100 | 36.4 | 58.8 | > 100 | 49.7 | 55.6 | 52.9 | 42.7 | 35.3 | 39.5 | 36.7 | > 100
CN(C)c1ccc(/C=C2/NC(=S)NC2=O)cc1 | > 100 | > 100 | > 100 | > 100 | > 100 | > 100 | > 100 | > 100 | 51 | > 100 | > 100 | > 100 | > 100 | > 100 | > 100 |  | > 100
CCOC(=O)C1(Cc2ccccc2)C=CN(C(=O)c2ccccc2)C=C1 | > 100 | 88.3 | > 100 | > 100 | > 100 | > 100 | > 100 | 49.6 | 45.7 | > 100 | > 100 | 76 | > 100 | 37.5 | 80 | > 100 | > 100
